Laboratory results taken from patent publication US8313771B2, “Phosphazene hydrogels with chemical corss-link, preparation method thereof and use thereof” (Korea Institute of Science and Technology, priority 2007, dated 2012).

Details: pH 7.4

Row | Max. gelling temp. | Substance
1 | 28 °C | [(isoleucine ethyl ester)(aminomethoxypolyethylene glycol 550)(aminoethylmethacrylate)phosphazene] [Example 2]
2 | 39 °C | poly[(isoleucine ethyl ester)(aminomethoxypolyethylene glycol 550)(aminoethylmethacrylate)phosphazene] [Example 4]
3 | 32 °C | poly[(isoleucine ethyl ester)(aminomethoxypolyethylene glycol 550)(cysteine ethyl ester)phosphazene] [Example 10]
4 | 34 °C | poly[(isoleucine ethyl ester)(aminomethoxypolyethylene glycol 550)(tyramine)phosphazene] [Example 18]
